# Assay results reported in ChEMBL document CHEMBL5316344, “Homologation of the Alkyl Side Chain of Antimitotic Phenyl 4-(2-Oxo-3-alkylimidazolidin-1-yl)benzenesulfonate Prodrugs Selectively Targeting CYP1A1-Expressing Breast Cancers Improves Their Stability in Rodent Liver Microsomes” (J Med Chem, 2023).
# Activity calls are given as the source filed them. The rule behind the calls is not given here.
# How the values were obtained:
# [1] = tested on: MCF7; test: Antiproliferative activity against human MCF7 cells expressing CYP1A1 assessed as cell growth inhibition incubated for 48 hrs by sulforhodamine B assay; assay type: functional, cell-based; settings: MCF7, 48 h
# [2] = tested on: HT-29; test: Antiproliferative activity against human HT-29 cells assessed as cell growth inhibition incubated for 48 hrs by sulforhodamine B assay; assay type: functional, cell-based; settings: HT-29, 48 h
# [3] = tested on: M21; test: Antiproliferative activity against human M21 cells assessed as cell growth inhibition incubated for 48 hrs by sulforhodamine B assay; assay type: functional, cell-based; settings: M21, 48 h
# [4] = Selectivity ratio, ratio of IC50 for antiproliferative activity against human HT-29 cells to IC50 for antiproliferative activity against human MCF7 cells expressing CYP1A1; assay type: functional
# [5] = Selectivity ratio, ratio of IC50 for antiproliferative activity against human M21 cells to IC50 for antiproliferative activity against human MCF7 cells expressing CYP1A1; assay type: functional
# [6] = tested on: HT-1080; test: Antiproliferative activity against human HT-1080 cells expressing CYP1A1 assessed as cell growth inhibition incubated for 48 hrs by sulforhodamine B assay; assay type: functional, cell-based; settings: HT-1080, 48 h
# [7] = tested on: HT-1080; test: Antiproliferative activity against human HT-1080 cells transfected with empty vector assessed as cell growth inhibition incubated for 48 hrs by sulforhodamine B assay; assay type: functional, cell-based; settings: HT-1080, 48 h
# [8] = tested on: HT-1080; test: Antiproliferative activity against human HT-1080 cells assessed as cell growth inhibition incubated for 48 hrs by sulforhodamine B assay; assay type: functional, cell-based; settings: HT-1080, 48 h
# [9] = Selectivity ratio, ratio of IC50 for antiproliferative activity against human HT-1080 cells transfected with empty vector to IC50 for antiproliferative activity against human HT-1080 cells expressing CYP1A1; assay type: functional
# [10] = Selectivity ratio, ratio of IC50 for antiproliferative activity against human HT-1080 cells to IC50 for antiproliferative activity against human HT-1080 cells expressing CYP1A1; assay type: functional
# [11] = tested on: MCF7; test: Induction of cell cycle arrest in human MCF7 cells expressing CYP1A1 assessed as accumulation of cells at G2/M phase at 15 nM incubated for 48 hrs by DAPI staining based flow cytometric analysis (reference value: 16+/-2 %); assay type: functional
# [12] = tested on: MCF7; test: Induction of cell cycle arrest in human MCF7 cells expressing CYP1A1 assessed as accumulation of cells at S phase at 15 nM incubated for 48 hrs by DAPI staining based flow cytometric analysis (reference value: 11+/-1 %); assay type: functional
# [13] = tested on: MCF7; test: Induction of cell cycle arrest in human MCF7 cells expressing CYP1A1 assessed as accumulation of cells at G0/G1 phase at 15 nM incubated for 48 hrs by DAPI staining based flow cytometric analysis (reference value: 74+/-2 %); assay type: functional
# [14] = Stability in human liver microsomes assessed as half life incubated for 60 mins by HPLC analysis; assay type: ADME, Microsome
# [15] = Stability in mouse liver microsomes assessed as half life incubated for 60 mins by HPLC analysis; assay type: ADME, Microsome
# [16] = Stability in rat liver microsomes assessed as half life incubated for 60 mins by HPLC analysis; assay type: ADME, Microsome
# [17] = Stability in human liver microsomes assessed as intrinsic clearance incubated for 60 mins by HPLC analysis; assay type: ADME, Microsome; settings: read-out: CLH
# [18] = Stability in mouse liver microsomes assessed as intrinsic clearance incubated for 60 mins by HPLC analysis; assay type: ADME, Microsome; settings: read-out: CLH
# [19] = Stability in rat liver microsomes assessed as intrinsic clearance incubated for 60 mins by HPLC analysis; assay type: ADME, Microsome; settings: read-out: CLH
# [20] = target: T1, Cytochrome P450 1A1 (Homo sapiens, UniProt P04798); test: Binding affinity to human CYP1A1 assessed as inhibition of conversion of 7-ethoicyresorufin into fluorescent resorufin by measuring inhibition constant preincubated for 5 mins followed by […] addition measured every minute for 15 mins by EROD assay; assay type: ADME
# T1 sequence (P04798 whole entry): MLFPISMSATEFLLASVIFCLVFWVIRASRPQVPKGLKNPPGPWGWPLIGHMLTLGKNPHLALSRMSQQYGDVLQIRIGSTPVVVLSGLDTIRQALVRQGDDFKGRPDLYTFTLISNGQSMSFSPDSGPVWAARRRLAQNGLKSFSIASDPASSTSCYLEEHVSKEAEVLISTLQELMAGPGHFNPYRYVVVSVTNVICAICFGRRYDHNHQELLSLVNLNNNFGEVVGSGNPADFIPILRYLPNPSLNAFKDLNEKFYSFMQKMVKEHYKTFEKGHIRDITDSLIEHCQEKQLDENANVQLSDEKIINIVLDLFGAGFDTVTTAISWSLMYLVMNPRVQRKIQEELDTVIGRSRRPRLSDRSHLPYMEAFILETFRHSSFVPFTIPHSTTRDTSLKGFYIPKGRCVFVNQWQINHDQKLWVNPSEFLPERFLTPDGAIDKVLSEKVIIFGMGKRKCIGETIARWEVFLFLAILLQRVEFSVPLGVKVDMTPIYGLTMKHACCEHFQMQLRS
# [21] = tested on: MDA-MB-231; test: Antiproliferative activity against ER/PR/HER2-negative human MDA-MB-231 cells assessed as cell growth inhibition incubated for 72 hrs by sulforhodamine B assay; assay type: functional, cell-based; settings: MDA-MB-231, 72 h
# [22] = tested on: MDA-MB-468; test: Antiproliferative activity against ER/PR/HER2-negative human MDA-MB-468 cells assessed as cell growth inhibition incubated for 72 hrs by sulforhodamine B assay; assay type: functional, cell-based; settings: MDA-MB-468, 72 h
# [23] = tested on: T47D; test: Antiproliferative activity against ER/PR-positive HER2-negative human T47D cells assessed as cell growth inhibition incubated for 72 hrs by sulforhodamine B assay; assay type: functional, cell-based
# [24] = tested on: SK-BR-3; test: Antiproliferative activity against ER/PR-negative HER2-positive human SK-BR-3 cells assessed as cell growth inhibition incubated for 72 hrs by sulforhodamine B assay; assay type: functional, cell-based; settings: SK-BR-3, 72 h
# [25] = tested on: MCF7; test: Antiproliferative activity against […] human MCF7 cells assessed as cell growth inhibition incubated for 72 hrs by sulforhodamine B assay; assay type: functional, cell-based; settings: MCF7, 72 h
# [26] = Selectivity ratio, ratio of IC50 for antiproliferative activity against ER/PR/HER2-negative human MDA-MB-231 cells to IC50 for antiproliferative activity against ER/PR/HER2-negative human MDA-MB-468 cells; assay type: functional
# [27] = Selectivity ratio, ratio of IC50 for antiproliferative activity against ER/PR/HER2-negative human MDA-MB-231 cells to IC50 for antiproliferative activity against ER/PR-positive HER2-negative human T47D cells; assay type: functional
# [28] = Selectivity ratio, ratio of IC50 for antiproliferative activity against ER/PR/HER2-negative human MDA-MB-231 cells to IC50 for antiproliferative activity against ER/PR-negative HER2-positive human SK-BR-3 cells; assay type: functional
# [29] = Selectivity ratio, ratio of IC50 for antiproliferative activity against ER/PR/HER2-negative human MDA-MB-231 cells to IC50 for antiproliferative activity against […] human MCF7 cells; assay type: functional
# [30] = tested on: MCF7; test: Induction of cell cycle arrest in human MCF7 cells expressing CYP1A1 assessed as accumulation of cells at G2/M phase at 1250 nM incubated for 48 hrs by DAPI staining based flow cytometric analysis (reference value: 16+/-2 %); assay type: functional
# [31] = tested on: MCF7; test: Induction of cell cycle arrest in human MCF7 cells expressing CYP1A1 assessed as accumulation of cells at S phase at 1250 nM incubated for 48 hrs by DAPI staining based flow cytometric analysis (reference value: 11+/-1 %); assay type: functional
# [32] = tested on: MCF7; test: Induction of cell cycle arrest in human MCF7 cells expressing CYP1A1 assessed as accumulation of cells at G0/G1 phase at 1250 nM incubated for 48 hrs by DAPI staining based flow cytometric analysis (reference value: 74+/-2 %); assay type: functional
# [33] = target: T2, Tubulin (Homo sapiens) (UniProt P68371+Q9H4B7+P0DPH7+P68366+Q13509+Q71U36+P04350+Q3ZCM7+P07437+P68363+Q9BQE3+Q6PEY2+Q13885+Q9BVA1+Q9BUF5); test: Disruption of microtubules in human MCF7 cells expressing CYP1A1 assessed as cytoskeleton disruption at 1250 nM measured after 48 hrs by DAPI staining based fluorescence microscopic analysis; assay type: cell-based
# [34] = tested on: HT-1080; test: Antitumor activity against human HT-1080 cells xenografted in chick embryo assessed as reduction in tumor wet weight at 1 ug, iv incubated for 17 days by CAM assay; assay type: functional; parameters: scale not given: the % may be the effect or the level left; settings: dose 1 µg, time 17 day
# [35] = tested on: HT-1080; test: Antitumor activity against human HT-1080 cells transfected with empty vector xenografted in chick embryo assessed as reduction in tumor wet weight at 1 ug, iv incubated for 17 days by CAM assay; assay type: functional; parameters: scale not given: the % may be the effect or the level left; settings: dose 1 µg, time 17 day
# [36] = tested on: HT-1080; test: Antitumor activity against human HT-1080 cells expressing CYP1A1 xenografted in chick embryo assessed as reduction in tumor wet weight at 1 ug, iv incubated for 17 days by CAM assay; assay type: functional; parameters: scale not given: the % may be the effect or the level left; settings: dose 1 µg, time 17 day
# [37] = Toxicity in chick embryo xenografted with human […] cells assessed as mortality at 1 ug, iv incubated for 17 days; assay type: organism-based, Gallus gallus; settings: chicken, in vivo, 408 h, dose 1 µg, time 17 day
# [38] = Toxicity in chick embryo xenografted with human […] cells transfected with empty vector assessed as mortality at 1 ug, iv incubated for 17 days; assay type: organism-based, Gallus gallus; settings: chicken, in vivo, 408 h, dose 1 µg, time 17 day
# [39] = Toxicity in chick embryo xenografted with human […] cells expressing CYP1A1 assessed as mortality at 1 ug, iv incubated for 17 days; assay type: organism-based, Gallus gallus; settings: chicken, in vivo, 408 h, dose 1 µg, time 17 day
# [40] = target: T1, Cytochrome P450 1A1; test: Prodrug conversion assessed as human CYP1A1-mediated CEU-699 formation incubated for 15 mins in presence of NADPH by HPLC analysis; assay type: ADME; settings: recombinant enzyme, 0.25 h
# [41] = tested on: MCF7; test: Induction of cell cycle arrest in human MCF7 cells expressing CYP1A1 assessed as accumulation of cells at G2/M phase at 25 nM incubated for 48 hrs by DAPI staining based flow cytometric analysis (reference value: 16+/-2 %); assay type: functional
# [42] = tested on: MCF7; test: Induction of cell cycle arrest in human MCF7 cells expressing CYP1A1 assessed as accumulation of cells at S phase at 25 nM incubated for 48 hrs by DAPI staining based flow cytometric analysis (reference value: 11+/-1 %); assay type: functional
# [43] = tested on: MCF7; test: Induction of cell cycle arrest in human MCF7 cells expressing CYP1A1 assessed as accumulation of cells at G0/G1 phase at 25 nM incubated for 48 hrs by DAPI staining based flow cytometric analysis (reference value: 74+/-2 %); assay type: functional
# [44] = target: T2, Tubulin (Homo sapiens); test: Disruption of microtubules in human MCF7 cells expressing CYP1A1 assessed as cytoskeleton disruption at 15 nM measured after 48 hrs by DAPI staining based fluorescence microscopic analysis; assay type: cell-based
Structure (SMILES),IC50 [1],IC50 [2],IC50 [3],Ratio IC50 [4],Ratio IC50 [5],IC50 [6],IC50 [7],IC50 [8],Ratio IC50 [9],Ratio IC50 [10],IC50 [21],IC50 [22],IC50 [23],IC50 [24],IC50 [25],Ratio IC50 [26],Ratio IC50 [27],Ratio IC50 [28],Ratio IC50 [29],Activity [34],further results
COc1ccc(/C=C\c2cc(OC)c(OC)c(OC)c2)cc1O [COMBRETASTATIN A4],9 nM,6 nM,0.4 nM,0.66,0.044,2.1 nM,0.0013 µM,0.006 µM,0.62,2.9,–,–,–,–,–,–,–,–,–,–,Activity [11]: 72%; Activity [12]: 8%; Activity [13]: 20.1%
CCCCCN1CCN(c2ccc(S(=O)(=O)Oc3cc(OC)cc(OC)c3)cc2)C1=O,600 nM,> 12500 nM,> 12500 nM,>21,>21,500 nM,8.8 µM,6.8 µM,18,14,> 12500 nM,210 nM,1100 nM,79 nM,43 nM,>60,>11,>160,>290,86%,half-life [14]: 70 min; half-life [15]: 44 min; half-life [16]: 107 min; microsomal CLint [17]: 20 µL/min/mg; microsomal CLint [18]: 32 µL/min/mg; microsomal CLint [19]: 13 µL/min/mg; Ki [20]: 230 nM; Activity [30]: 57%; Activity [31]: 11%; Activity [32]: 32%; Activity [33]: Active; Activity [35]: 87%; Activity [36]: 71%; Activity [37]: Non-Toxic; Activity [38]: Non-Toxic; Activity [39]: Non-Toxic; Drug metabolism [40]: Metabolite_Detected
COc1cc(OS(=O)(=O)c2ccc(N3CCNC3=O)cc2)cc(OC)c1OC,25 nM,40 nM,40 nM,1.6,1.6,–,–,–,–,–,6.9 nM,5.3 nM,13 nM,3 nM,3.4 nM,1.3,0.53,2.3,2,49%,Activity [41]: 63%; Activity [42]: 9%; Activity [43]: 28%; Activity [44]: Active; Activity [35]: 79%; Activity [36]: 68%; Activity [37]: Non-Toxic; Activity [38]: Non-Toxic; Activity [39]: Non-Toxic
